Several values for one entry are separate records, joined by “and”; a condition that tells them apart may be missing. Equal values may be shown once.
How the values were obtained:
[1] = for vapor or sublimation pressure: Calculated from knudsen effusion weight loss
[2] = Molar enthalpy of transition or fusion; settings: DSC

O[C@@H]1[C@@H](O)[C@@H]2OC[C@@H](O2)[C@H]1O [1,6-anhydro-β-D-glucopyranose]
[1], Crystal 2
Settings	vapor or sublimation pressure
361.13 K	5.35e-05 kPa and 6.29e-05 kPa and 5.88e-05 kPa
363.14 K	7.32e-05 kPa and 7.78e-05 kPa
365.22 K	0.000102 kPa and 0.000101 kPa and 9.67e-05 kPa
367.16 K	0.00012 kPa and 0.000119 kPa and 0.000113 kPa
369.14 K	0.000164 kPa and 0.000144 kPa and 0.000152 kPa
371.15 K	0.000183 kPa and 0.000192 kPa
373.15 K	0.000247 kPa and 0.000231 kPa
375.13 K	0.000317 kPa and 0.00028 kPa and 0.000289 kPa
377.22 K	0.000407 kPa and 0.000368 kPa and 0.000396 kPa
379.15 K	0.000476 kPa and 0.000472 kPa and 0.000458 kPa

Settings	Molar enthalpy of transition or fusion, Crystal 1 [kcal/mol]	Molar enthalpy of transition or fusion, Crystal 2 [kcal/mol]	Normal melting temperature, Crystal 1, DTA [°C]	Triple point temperature, Crystal 2, DTA [K]
[1]	–	–	182.2	384.9
[2]	0.789	5.54	–	–

Source: the NIST ThermoML archive (doi:10.1021/je400207t)
